Patent US9556187B2, “Substituted pyrrolo[3′,2′:5,6]pyrido[4,3-d]pyrimidines and JAK inhibitors comprising the same” (priority 2011, dated 2017)

Columns and labels:
Type in all cases: biochemical
JAK2 [1] = molecular target: T1, JAK2 (Homo sapiens (Human), UniProt O60674); assay: Enzyme assay (LANCE Ultra ULight-JAK1 Peptide), JAK2; settings: ATP 100 μM
JAK1 [2] = molecular target: T2, JAK1 (Homo sapiens (Human), UniProt P23458); assay: Enzyme assay (LANCE Ultra ULight-JAK1 Peptide), JAK1; settings: ATP 100 μM
T2 sequence (P23458 whole entry): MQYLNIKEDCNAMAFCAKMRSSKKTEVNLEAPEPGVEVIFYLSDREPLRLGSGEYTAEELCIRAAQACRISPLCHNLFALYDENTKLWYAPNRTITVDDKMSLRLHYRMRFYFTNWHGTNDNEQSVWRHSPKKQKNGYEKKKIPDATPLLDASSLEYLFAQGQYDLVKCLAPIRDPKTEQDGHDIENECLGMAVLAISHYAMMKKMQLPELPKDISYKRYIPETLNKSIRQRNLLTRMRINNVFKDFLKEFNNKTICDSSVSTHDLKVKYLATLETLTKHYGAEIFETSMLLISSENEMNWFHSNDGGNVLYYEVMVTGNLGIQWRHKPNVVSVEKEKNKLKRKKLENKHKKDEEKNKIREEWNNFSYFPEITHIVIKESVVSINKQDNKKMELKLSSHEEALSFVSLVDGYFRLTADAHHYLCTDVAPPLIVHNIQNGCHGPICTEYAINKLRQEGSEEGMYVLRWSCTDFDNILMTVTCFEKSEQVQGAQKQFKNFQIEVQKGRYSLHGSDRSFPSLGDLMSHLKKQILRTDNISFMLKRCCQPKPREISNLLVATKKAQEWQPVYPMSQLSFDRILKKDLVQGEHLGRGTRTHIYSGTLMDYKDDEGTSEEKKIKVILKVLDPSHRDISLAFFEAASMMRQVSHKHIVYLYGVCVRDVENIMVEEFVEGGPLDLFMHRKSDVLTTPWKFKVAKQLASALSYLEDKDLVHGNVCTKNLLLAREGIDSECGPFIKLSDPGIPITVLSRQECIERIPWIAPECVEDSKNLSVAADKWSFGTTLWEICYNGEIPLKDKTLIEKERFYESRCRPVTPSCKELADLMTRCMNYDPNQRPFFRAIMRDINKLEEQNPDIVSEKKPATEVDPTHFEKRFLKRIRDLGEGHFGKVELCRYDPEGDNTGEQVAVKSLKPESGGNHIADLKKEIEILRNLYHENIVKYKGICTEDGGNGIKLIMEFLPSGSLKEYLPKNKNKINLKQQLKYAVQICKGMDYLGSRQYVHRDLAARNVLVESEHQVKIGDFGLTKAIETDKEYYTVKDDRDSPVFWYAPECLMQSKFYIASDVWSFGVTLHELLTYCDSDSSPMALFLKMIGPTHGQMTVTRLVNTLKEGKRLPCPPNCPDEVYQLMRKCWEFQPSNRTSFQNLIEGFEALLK

JAK1 [3] = molecular target: T2, JAK1; assay: Enzyme assay, JAK1 (Assay Example^b 1); settings: ATP 100 μM
Experimental: (§1) JAK1, JAK2, JAK3 and Tyk2 were purchased from Carna Biosciences, Inc. As the substrate, LANCE Ultra ULight-JAK1 Peptide (manufactured by PerkinElmer Co., Ltd. (PE)) was used. Dilute solutions of compounds and enzymes in assay buffer (50 mM HEPES pH7.5, 1 mM EGTA, 1 mM MgCl2, 2 mM DTT, 0.01% Tween20) were dispensed into wells of a 384-well black plate. After 5 minutes of preincubation, dilute solutions of the substrate and ATP (adenosine triphosphate) were added at a final concentration of 100 μM, and the plate was incubated at room temperature for 2 hours. After addition of a termination reagent containing EDTA (ehylenediamine tetraacetic acid) at a final concentration of 10 mM, LANCE Eu-W1024 Anti-phosphotyrosine (PT66) (manufactured by PE) was added, and after 1 hour of incubation, the fluorescences were measured with ARVO-HTS. From the plot of logarithm of a compound concentration and inhibitory activity, the IC50 was calculated.

Tyk2 [4] = molecular target: T3, Tyk2 (Homo sapiens (Human), UniProt P29597); assay: Enzyme assay (LANCE Ultra ULight-JAK1 Peptide), Tyk2; settings: ATP 100 μM
T3 sequence (P29597 whole entry): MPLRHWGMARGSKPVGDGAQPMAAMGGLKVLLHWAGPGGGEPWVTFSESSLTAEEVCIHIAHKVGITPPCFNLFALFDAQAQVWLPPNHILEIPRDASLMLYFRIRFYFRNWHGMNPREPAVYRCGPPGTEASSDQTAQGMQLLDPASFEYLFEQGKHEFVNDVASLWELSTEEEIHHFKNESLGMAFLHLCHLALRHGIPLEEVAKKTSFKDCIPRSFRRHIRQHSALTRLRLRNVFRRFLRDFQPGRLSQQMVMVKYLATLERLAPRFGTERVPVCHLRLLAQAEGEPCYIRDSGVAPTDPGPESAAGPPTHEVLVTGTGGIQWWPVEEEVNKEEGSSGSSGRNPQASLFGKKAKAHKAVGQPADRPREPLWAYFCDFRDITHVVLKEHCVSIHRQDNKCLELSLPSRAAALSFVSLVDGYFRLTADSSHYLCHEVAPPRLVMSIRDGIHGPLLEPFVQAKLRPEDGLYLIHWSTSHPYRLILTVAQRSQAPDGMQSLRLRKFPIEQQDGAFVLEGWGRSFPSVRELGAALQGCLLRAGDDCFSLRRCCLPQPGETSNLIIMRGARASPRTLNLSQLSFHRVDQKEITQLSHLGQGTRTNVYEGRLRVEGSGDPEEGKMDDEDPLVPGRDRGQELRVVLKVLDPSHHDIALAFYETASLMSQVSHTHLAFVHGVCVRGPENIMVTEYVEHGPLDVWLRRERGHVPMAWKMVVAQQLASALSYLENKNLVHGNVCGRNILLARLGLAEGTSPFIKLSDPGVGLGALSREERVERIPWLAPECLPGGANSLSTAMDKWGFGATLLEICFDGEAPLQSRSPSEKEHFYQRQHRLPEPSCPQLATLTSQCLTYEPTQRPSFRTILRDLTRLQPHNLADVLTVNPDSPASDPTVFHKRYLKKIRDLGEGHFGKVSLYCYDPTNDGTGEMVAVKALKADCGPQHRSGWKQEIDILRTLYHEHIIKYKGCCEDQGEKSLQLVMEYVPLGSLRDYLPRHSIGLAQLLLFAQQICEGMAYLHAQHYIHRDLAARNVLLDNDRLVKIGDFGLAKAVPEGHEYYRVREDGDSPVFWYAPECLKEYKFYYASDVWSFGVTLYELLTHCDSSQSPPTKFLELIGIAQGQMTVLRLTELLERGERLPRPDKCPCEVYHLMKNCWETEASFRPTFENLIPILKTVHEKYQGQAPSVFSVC

JAK3 = JAK3 (Homo sapiens (Human), UniProt P52333); assay: Enzyme assay, JAK3 (Assay Example^b 1)
JAK3, sequence (P52333 whole entry): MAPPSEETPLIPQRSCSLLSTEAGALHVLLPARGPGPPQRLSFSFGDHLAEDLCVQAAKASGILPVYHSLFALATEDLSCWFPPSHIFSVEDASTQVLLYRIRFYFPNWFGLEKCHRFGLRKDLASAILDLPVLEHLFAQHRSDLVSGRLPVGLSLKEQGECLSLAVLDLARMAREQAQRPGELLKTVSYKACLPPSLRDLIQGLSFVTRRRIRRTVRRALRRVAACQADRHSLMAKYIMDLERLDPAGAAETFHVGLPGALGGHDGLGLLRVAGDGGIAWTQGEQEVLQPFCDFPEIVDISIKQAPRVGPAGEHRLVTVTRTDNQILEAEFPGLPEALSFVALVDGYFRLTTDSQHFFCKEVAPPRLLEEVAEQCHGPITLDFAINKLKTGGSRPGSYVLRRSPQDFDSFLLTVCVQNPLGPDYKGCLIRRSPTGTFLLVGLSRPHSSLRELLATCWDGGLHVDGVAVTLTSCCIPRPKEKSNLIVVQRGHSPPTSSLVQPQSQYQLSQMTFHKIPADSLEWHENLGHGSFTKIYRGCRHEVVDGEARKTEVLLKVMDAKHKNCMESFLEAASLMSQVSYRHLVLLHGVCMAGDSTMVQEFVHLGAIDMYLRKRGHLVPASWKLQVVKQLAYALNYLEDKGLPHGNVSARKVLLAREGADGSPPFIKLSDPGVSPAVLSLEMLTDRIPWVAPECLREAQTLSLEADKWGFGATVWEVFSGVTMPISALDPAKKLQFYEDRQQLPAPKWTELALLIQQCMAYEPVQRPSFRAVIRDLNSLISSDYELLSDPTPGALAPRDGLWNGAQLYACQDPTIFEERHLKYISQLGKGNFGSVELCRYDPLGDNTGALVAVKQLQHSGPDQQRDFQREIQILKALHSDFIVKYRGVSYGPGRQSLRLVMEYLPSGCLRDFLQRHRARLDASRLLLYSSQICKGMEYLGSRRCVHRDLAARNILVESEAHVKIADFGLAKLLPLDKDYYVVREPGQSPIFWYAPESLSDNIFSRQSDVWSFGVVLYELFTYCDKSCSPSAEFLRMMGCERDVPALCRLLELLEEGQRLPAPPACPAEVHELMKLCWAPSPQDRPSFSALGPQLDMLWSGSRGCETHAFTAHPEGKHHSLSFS
Experimental: as §1

JAK2 [5] = molecular target: T1, JAK2; assay: Enzyme assay, JAK2 (Assay Example^b 1); settings: ATP 100 μM
Experimental: as §1

Tyk2 [6] = molecular target: T3, Tyk2; assay: Enzyme assay, Tyk2 (Assay Example^b 1); settings: ATP 100 μM
Experimental: as §1

Row | SMILES | IC50 (JAK2 [1]; Synthetic Examples^a) | IC50 (JAK1 [2]; Synthetic Examples^a) | IC50 (JAK3) | also measured
1 | Brc1nc(CN2CCC(c3nnn4cnc5[nH]ccc5c34)CC2)sc1Br [Ex 233] | 0.071 µM | 0.021 µM |  | 
2 | CC1(C)CCC(c2nnn3cnc4[nH]ccc4c23)CC1 [Ex 64] |  |  |  | IC50 (JAK1 [3]): 0.012 µM; IC50 (JAK2 [1]): 0.12 µM; IC50 (Tyk2 [4]): 0.31 µM; IC50 (JAK1 [2]): 0.033 µM
3 | c1ccc2sc(CN3CCC(c4nnn5cnc6[nH]ccc6c45)CC3)nc2c1 [Ex 232] | 0.033 µM | 0.0053 µM |  | IC50 (Tyk2 [4]; Synthetic Examples^a): 0.74 µM
4 | CC(c1ccccc1)N1CCC(c2nnn3cnc4[nH]ccc4c23)CC1 (racemic) [Ex 245] | 0.062 µM | 0.017 µM |  | 
5 | C[C@@H]1CCN(C)C[C@@H]1n1ccc(=O)c2cnc3[nH]ccc3c21 (racemic) [Synthetic Example^b 6b, rac-1-[(3R,4R)-1,4-Dimethylpiperidin-3-yl]-1H-pyrrolo[2,3-h][1,6]naphthyridin-4(7H)-one] |  |  | 250 nM | IC50 (JAK2 [5]): 0.38 µM; IC50 (Tyk2 [6]): 3.9 µM
6 | C[C@@H]1CCN(Cc2cccc(F)c2F)C[C@@H]1n1ccc(=O)c2cnc3[nH]ccc3c21 (racemic) [Synthetic Example^b 6a, rac-1-[(3R,4R)-1-(2,3-Difluorobenzyl)-4-methylpiperidin-3-yl]-1H-pyrrolo[2,3-h][1,6]naphthyridin-4(7H)-one] |  |  | 31 nM | 
